Assay results reported in PubChem BioAssay AID248 (DTP/NCI, 2004).
Values joined by “and” are separate entries in the source; they are usually repeats but may differ in a detail not shown here. Equal entries are not always repeated. Toxic doses and inconclusive results are not listed.

System: L1210 leukemia ip in BDF1 mice, survival T/C
Assay: NCI In Vivo Anticancer Drug Screen. Data for tumor model L1210 Leukemia (intraperitoneal) in B6D2F1 (BDF1) mice
Conditions: endpoint: mean survival time, higher = longer survival
Summary of the method: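 Transplanted-tumor mice were given test agent; controls received vehicle only. Survival readings from the two groups were divided (treated over control).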

With `O=c1[nH]c(=O)n(C2CC(O)C(CO)O2)cc1C(F)(F)F` (stereo not drawn) the T/C (dose: 250.0 mg/kg/injection, schedule: Q01DX001 (ip), vehicle: saline) was 112 % of control, the T/C (dose: 250.0 mg/kg/injection, schedule: Q01DX Z (ip), vehicle: saline) was 157 % of control and the T/C (dose: 251.0 mg/kg/injection, schedule: Q01DX Z (ip), vehicle: saline) was 108 % of control. For the same compound, the T/C (dose: 256.0 mg/kg/injection, schedule: Q01DX001 (oral), vehicle: saline) was 112 % of control, the T/C (dose: 256.0 mg/kg/injection, schedule: Q01DX009 (ip), vehicle: saline) was 150 % of control and the T/C (dose: 256.0 mg/kg/injection, schedule: Q01DX009 (oral), vehicle: saline) was 157 % of control. The T/C (dose: 256.0 mg/kg/injection, schedule: Q03HX016 (ip), vehicle: water) was 153 % of control, the T/C (dose: 256.0 mg/kg/injection, schedule: Q04DX003 (ip), vehicle: water) was 116 % of control and the T/C (dose: 300.0 mg/kg/injection, schedule: Q01DX001 (ip), vehicle: water) was 106 % of control. The T/C (dose: 300.0 mg/kg/injection, schedule: Q01DX017 (ip), vehicle: water) was 119 % of control, the T/C (dose: 300.0 mg/kg/injection, schedule: Q01DX Z (ip), vehicle: water) was 102 % of control and the T/C (dose: 300.0 mg/kg/injection, schedule: Q01DX Z (oral), vehicle: saline) was 116 % of control. For the same compound, the T/C (dose: 300.0 mg/kg/injection, schedule: Q03DX Z (ip), vehicle: saline) was 118 % of control, the T/C (dose: 300.0 mg/kg/injection, schedule: Q04DX005 (ip), vehicle: water) was 123 % of control and the T/C (dose: 320.0 mg/kg/injection, schedule: Q01DX015 (ip), vehicle: saline) was 98 % of control. The T/C (dose: 350.0 mg/kg/injection, schedule: Q01DX Z (ip), vehicle: saline) was 111 % of control, the T/C (dose: 351.0 mg/kg/injection, schedule: Q01DX Z (ip), vehicle: saline) was 114 % of control and the T/C (dose: 400.0 mg/kg/injection, schedule: Q01DX001 (ip), vehicle: saline) was 98 % of control and 113 % of control. The T/C (dose: 400.0 mg/kg/injection, schedule: Q01DX Z (im), vehicle: saline) was 159 % of control, the T/C (dose: 400.0 mg/kg/injection, schedule: Q## X001 (ip), vehicle: saline) was 116 % of control and the T/C (dose: 480.0 mg/kg/injection, schedule: Q01DX015 (ip), vehicle: saline) was 98 % of control. For the same compound, the T/C (dose: 500.0 mg/kg/injection, schedule: Q01DX001 (ip), vehicle: saline) was 112 % of control, the T/C (dose: 512.0 mg/kg/injection, schedule: Q01DX001 (oral), vehicle: saline) was 112 % of control and the T/C (dose: 512.0 mg/kg/injection, schedule: Q01DX009 (ip), vehicle: saline) was 117 % of control. The T/C (dose: 512.0 mg/kg/injection, schedule: Q04DX003 (ip), vehicle: water) was 120 % of control, the T/C (dose: 512.0 mg/kg/injection, schedule: Q## X008 (oral), vehicle: saline) was 121 % of control and the T/C (dose: 600.0 mg/kg/injection, schedule: Q01DX001 (ip), vehicle: water) was 107 % of control. For the same compound, the T/C (dose: 600.0 mg/kg/injection, schedule: Q01DX Z (oral), vehicle: saline) was 106 % of control, the T/C (dose: 600.0 mg/kg/injection, schedule: Q02DX009 (ip), vehicle: water) was 159 % of control and the T/C (dose: 600.0 mg/kg/injection, schedule: Q04DX005 (ip), vehicle: water) was 119 % of control. The T/C (dose: 800.0 mg/kg/injection, schedule: Q01DX001 (ip), vehicle: saline) was 107 % of control and 116 % of control, the T/C (dose: 800.0 mg/kg/injection, schedule: Q01DX006 (iv), vehicle: saline) was 154 % of control and the T/C (dose: 800.0 mg/kg/injection, schedule: Q01DX Z (ip), vehicle: saline) was 124 % of control. The T/C (dose: 800.0 mg/kg/injection, schedule: Q01DX Z (oral), vehicle: saline) was 110 % of control, the T/C (dose: 800.0 mg/kg/injection, schedule: Q## X001 (ip), vehicle: saline) was 121 % of control and the T/C (dose: 1000.0 mg/kg/injection, schedule: Q01DX001 (ip), vehicle: saline) was 123 % of control. The T/C (dose: 1024.0 mg/kg/injection, schedule: Q01DX001 (oral), vehicle: saline) was 121 % of control, the T/C (dose: 1024.0 mg/kg/injection, schedule: Q01DX009 (oral), vehicle: saline) was 101 % of control and the T/C (dose: 1024.0 mg/kg/injection, schedule: Q## X003 (oral), vehicle: saline) was 156 % of control. For the same compound, the T/C (dose: 1200.0 mg/kg/injection, schedule: Q01DX001 (ip), vehicle: water) was 104 % of control, the T/C (dose: 1200.0 mg/kg/injection, schedule: Q01DX Z (im), vehicle: saline) was 121 % of control and the T/C (dose: 1200.0 mg/kg/injection, schedule: Q01DX Z (sc), vehicle: saline) was 115 % of control. For the same compound, the T/C (dose: 1200.0 mg/kg/injection, schedule: Q04DX005 (ip), vehicle: water) was 119 % of control, the T/C (dose: 1600.0 mg/kg/injection, schedule: Q01DX Z (im), vehicle: saline) was 113 % of control and the T/C (dose: 1600.0 mg/kg/injection, schedule: Q01DX Z (oral), vehicle: saline) was 97 % of control. For the same compound, the T/C (dose: 1600.0 mg/kg/injection, schedule: Q01DX Z (sc), vehicle: saline) was 107 % of control, the T/C (dose: 2400.0 mg/kg/injection, schedule: Q01DX001 (ip), vehicle: water) was 104 % of control and the T/C (dose: 4096.0 mg/kg/injection, schedule: Q## X008 (oral), vehicle: saline) was 151 % of control.
